Data published in PubChem BioAssay AID256 (DTP/NCI, 2004).
Toxic doses and inconclusive results are not listed.

System: CD2F1 mice, L1210 leukemia ip, survival T/C
Assay: NCI In Vivo Anticancer Drug Screen. Data for tumor model L1210 Leukemia (intraperitoneal) in CD2F1 (CDF1) mice
Conditions: higher = longer survival
In short: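 Implant tumor; dose compound or vehicle; measure endpoint in both groups; report treated divided by control.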

[1] = endpoint: mean survival time, dose: 25.0 mg/kg/injection, schedule: Q04DX003 (ip), vehicle: saline
[2] = endpoint: mean survival time, dose: 50.0 mg/kg/injection, schedule: Q04DX003 (ip), vehicle: saline

`CC1CCN(N=Nc2ccccc2-c2nc(N)c3ccccc3n2)CC1` was tested, and the T/C (endpoint: mean survival time, dose: 100.0 mg/kg/injection, schedule: Q04DX002 (ip), vehicle: Klucel (hydroxypropylcellulose) (HPC)) was 98 % of control, the T/C (endpoint: mean survival time, dose: 200.0 mg/kg/injection, schedule: Q04DX002 (ip), vehicle: Klucel (hydroxypropylcellulose) (HPC)) was 109 % of control and the T/C (endpoint: mean survival time, dose: 400.0 mg/kg/injection, schedule: Q04DX002 (ip), vehicle: Klucel (hydroxypropylcellulose) (HPC)) was 95 % of control.

In the case of `C[n+]1ccc(Nc2ccc(NC(=O)c3ccc(Nc4cc[n+](C)c5ccc(N)cc45)cc3)cc2)cc1`, the T/C (endpoint: mean survival time, dose: 2.0 mg/kg/injection, schedule: Q01DX009 (ip), vehicle: water) is reported as 313 % of control, the T/C (endpoint: mean survival time, dose: 4.0 mg/kg/injection, schedule: Q01DX009 (ip), vehicle: water) is reported as 341 % of control and the T/C (endpoint: median survival time, dose: 0.25 mg/kg/injection, schedule: Q03HX008 (ip), vehicle: water) is reported as 100 % of control. For the same compound, the T/C (endpoint: median survival time, dose: 0.25 mg/kg/injection, schedule: Q03HX016 (ip), vehicle: water) was 102 % of control, the T/C (endpoint: median survival time, dose: 0.25 mg/kg/injection, schedule: Q03HX024 (ip), vehicle: water) was 110 % of control and the T/C (endpoint: median survival time, dose: 0.5 mg/kg/injection, schedule: Q01DX005 (ip), vehicle: water) was 120 % of control. For the same compound, the T/C (endpoint: median survival time, dose: 0.5 mg/kg/injection, schedule: Q01DX009 (ip), vehicle: water) was 123 % of control, the T/C (endpoint: median survival time, dose: 0.5 mg/kg/injection, schedule: Q01DX009 (sc), vehicle: water) was 96 % of control and the T/C (endpoint: median survival time, dose: 0.5 mg/kg/injection, schedule: Q03HX008 (ip), vehicle: water) was 113 % of control. For the same compound, the T/C (endpoint: median survival time, dose: 0.5 mg/kg/injection, schedule: Q03HX016 (ip), vehicle: water) was 109 % of control, the T/C (endpoint: median survival time, dose: 1.0 mg/kg/injection, schedule: Q01DX009 (sc), vehicle: water) was 101 % of control and the T/C (endpoint: median survival time, dose: 1.0 mg/kg/injection, schedule: Q03HX016 (ip), vehicle: water) was 158 % of control. For the same compound, the T/C (endpoint: median survival time, dose: 1.0 mg/kg/injection, schedule: Q03HX024 (ip), vehicle: water) was 180 % of control, the T/C (endpoint: median survival time, dose: 2.0 mg/kg/injection, schedule: Q01DX001 (ip), vehicle: water) was 103 % of control and the T/C (endpoint: median survival time, dose: 2.0 mg/kg/injection, schedule: Q01DX001 (sc), vehicle: water) was 97 % of control. For the same compound, the T/C (endpoint: median survival time, dose: 2.0 mg/kg/injection, schedule: Q01DX005 (ip), vehicle: water) was 164 % of control, the T/C (endpoint: median survival time, dose: 2.0 mg/kg/injection, schedule: Q01DX009 (ip), vehicle: water) was 274 % of control and the T/C (endpoint: median survival time, dose: 2.0 mg/kg/injection, schedule: Q01DX009 (oral), vehicle: water) was 100 % of control. For the same compound, the T/C (endpoint: median survival time, dose: 2.0 mg/kg/injection, schedule: Q01DX009 (sc), vehicle: water) was 157 % of control, the T/C (endpoint: median survival time, dose: 2.0 mg/kg/injection, schedule: Q03HX008 (ip), vehicle: water) was 157 % of control and the T/C (endpoint: median survival time, dose: 2.0 mg/kg/injection, schedule: Q03HX016 (ip), vehicle: water) was 185 % of control. For the same compound, the T/C (endpoint: median survival time, dose: 2.0 mg/kg/injection, schedule: Q03HX024 (ip), vehicle: water) was 256 % of control, the T/C (endpoint: median survival time, dose: 2.0 mg/kg/injection, schedule: Q04DX003 (ip), vehicle: water) was 113 % of control and the T/C (endpoint: median survival time, dose: 4.0 mg/kg/injection, schedule: Q01DX001 (ip), vehicle: water) was 114 % of control. For the same compound, the T/C (endpoint: median survival time, dose: 4.0 mg/kg/injection, schedule: Q01DX001 (sc), vehicle: water) was 100 % of control, the T/C (endpoint: median survival time, dose: 4.0 mg/kg/injection, schedule: Q01DX005 (ip), vehicle: water) was 252 % of control and the T/C (endpoint: median survival time, dose: 4.0 mg/kg/injection, schedule: Q01DX009 (ip), vehicle: water) was 373 % of control. For the same compound, the T/C (endpoint: median survival time, dose: 4.0 mg/kg/injection, schedule: Q01DX009 (oral), vehicle: water) was 97 % of control, the T/C (endpoint: median survival time, dose: 4.0 mg/kg/injection, schedule: Q01DX009 (sc), vehicle: water) was 241 % of control and the T/C (endpoint: median survival time, dose: 4.0 mg/kg/injection, schedule: Q03HX008 (ip), vehicle: water) was 175 % of control. The T/C (endpoint: median survival time, dose: 4.0 mg/kg/injection, schedule: Q03HX016 (ip), vehicle: water) was 212 % of control, the T/C (endpoint: median survival time, dose: 4.0 mg/kg/injection, schedule: Q03HX024 (ip), vehicle: water) was 321 % of control and the T/C (endpoint: median survival time, dose: 4.0 mg/kg/injection, schedule: Q08DX002 (ip), vehicle: water) was 164 % of control. For the same compound, the T/C (endpoint: median survival time, dose: 8.0 mg/kg/injection, schedule: Q01DX001 (oral), vehicle: water) was 92 % of control, the T/C (endpoint: median survival time, dose: 8.0 mg/kg/injection, schedule: Q01DX001 (sc), vehicle: water) was 105 % of control and the T/C (endpoint: median survival time, dose: 8.0 mg/kg/injection, schedule: Q01DX009 (ip), vehicle: water) was 332 % of control. The T/C (endpoint: median survival time, dose: 8.0 mg/kg/injection, schedule: Q01DX009 (oral), vehicle: water) was 98 % of control, the T/C (endpoint: median survival time, dose: 8.0 mg/kg/injection, schedule: Q01DX009 (sc), vehicle: water) was 307 % of control and the T/C (endpoint: median survival time, dose: 8.0 mg/kg/injection, schedule: Q04DX003 (ip), vehicle: water) was 157 % of control. The T/C (endpoint: median survival time, dose: 16.0 mg/kg/injection, schedule: Q01DX001 (oral), vehicle: water) was 98 % of control, the T/C (endpoint: median survival time, dose: 16.0 mg/kg/injection, schedule: Q01DX001 (sc), vehicle: water) was 121 % of control and the T/C (endpoint: median survival time, dose: 16.0 mg/kg/injection, schedule: Q01DX009 (oral), vehicle: water) was 100 % of control. For the same compound, the T/C (endpoint: median survival time, dose: 16.0 mg/kg/injection, schedule: Q01DX009 (sc), vehicle: water) was 120 % of control, the T/C (endpoint: median survival time, dose: 32.0 mg/kg/injection, schedule: Q01DX001 (oral), vehicle: water) was 96 % of control and the T/C (endpoint: median survival time, dose: 32.0 mg/kg/injection, schedule: Q01DX009 (oral), vehicle: water) was 98 % of control. For the same compound, the T/C (endpoint: median survival time, dose: 64.0 mg/kg/injection, schedule: Q01DX001 (oral), vehicle: water) was 100 % of control, the T/C (endpoint: median survival time, dose: 64.0 mg/kg/injection, schedule: Q01DX001 (sc), vehicle: water) was 208 % of control and the T/C (endpoint: median survival time, dose: 64.0 mg/kg/injection, schedule: Q01DX009 (oral), vehicle: water) was 100 % of control. For the same compound, the T/C (endpoint: median survival time, dose: 128.0 mg/kg/injection, schedule: Q01DX001 (oral), vehicle: water) was 102 % of control and the T/C (endpoint: median survival time, dose: 256.0 mg/kg/injection, schedule: Q01DX001 (oral), vehicle: water) was 92 % of control.

In the case of `CCN(CC)C(C)COC(=O)c1ccc(N)cc1` (centres undefined), the T/C (endpoint: mean survival time, dose: 12.5 mg/kg/injection, schedule: Q04DX003 (ip), vehicle: saline) is reported as 103 % of control, the T/C [1] is reported as 103 % of control and the T/C [2] is reported as 111 % of control.

With `CCCCNCCN(CC)CC` the T/C (endpoint: mean survival time, dose: 25.0 mg/kg/injection, schedule: Q01DX009 (ip), vehicle: saline with Tween-80) was 94 % of control, the T/C [1] was 94 % of control and the T/C (endpoint: mean survival time, dose: 50.0 mg/kg/injection, schedule: Q01DX009 (ip), vehicle: saline with Tween-80) was 96 % of control. For the same compound, the T/C [2] was 89 % of control, the T/C (endpoint: mean survival time, dose: 100.0 mg/kg/injection, schedule: Q01DX009 (ip), vehicle: saline with Tween-80) was 93 % of control and the T/C (endpoint: mean survival time, dose: 100.0 mg/kg/injection, schedule: Q04DX003 (ip), vehicle: saline) was 97 % of control.

With `C1CC2OC2CCC2OC12` (centres undefined) the T/C (endpoint: mean survival time, dose: 100.0 mg/kg/injection, schedule: Q01DX009 (ip), vehicle: saline sonified) was 103 % of control, the T/C (endpoint: mean survival time, dose: 100.0 mg/kg/injection, schedule: Q04DX003 (ip), vehicle: saline with Tween-80) was 100 % of control and the T/C (endpoint: mean survival time, dose: 200.0 mg/kg/injection, schedule: Q01DX009 (ip), vehicle: saline sonified) was 104 % of control. For the same compound, the T/C (endpoint: mean survival time, dose: 200.0 mg/kg/injection, schedule: Q04DX003 (ip), vehicle: saline with Tween-80) was 97 % of control, the T/C (endpoint: mean survival time, dose: 400.0 mg/kg/injection, schedule: Q01DX009 (ip), vehicle: saline sonified) was 104 % of control and the T/C (endpoint: mean survival time, dose: 400.0 mg/kg/injection, schedule: Q04DX003 (ip), vehicle: saline with Tween-80) was 103 % of control.

`Cc1cc(C)c(N(CC(=O)O)S(=O)(=O)c2ccccc2)c(C)c1N(CC(=O)O)S(=O)(=O)c1ccccc1` was tested, and the T/C (endpoint: mean survival time, dose: 100.0 mg/kg/injection, schedule: Q01DX001 (ip), vehicle: saline with Tween-80) was 97 % of control, the T/C (endpoint: mean survival time, dose: 200.0 mg/kg/injection, schedule: Q01DX001 (ip), vehicle: saline with Tween-80) was 105 % of control and the T/C (endpoint: mean survival time, dose: 400.0 mg/kg/injection, schedule: Q01DX001 (ip), vehicle: saline with Tween-80) was 103 % of control.

`CSc1nc(NN)c2cnn(C3OC(CO)C(O)C3O)c2n1` (centres undefined) was tested, and the T/C (endpoint: median survival time, dose: 11.3 mg/kg/injection, schedule: Q01DX005 (ip), vehicle: saline with Tween-80) was 107 % of control, the T/C (endpoint: median survival time, dose: 22.5 mg/kg/injection, schedule: Q01DX005 (ip), vehicle: saline with Tween-80) was 104 % of control and the T/C (endpoint: median survival time, dose: 45.0 mg/kg/injection, schedule: Q01DX005 (ip), vehicle: saline with Tween-80) was 102 % of control. For the same compound, the T/C (endpoint: median survival time, dose: 90.0 mg/kg/injection, schedule: Q01DX005 (ip), vehicle: saline with Tween-80) was 105 % of control.

For `Nc1cn2ncnc2c(=O)[nH]1`, the T/C (endpoint: median survival time, dose: 50.0 mg/kg/injection, schedule: Q01DX005 (ip), vehicle: saline) was 106 % of control, the T/C (endpoint: median survival time, dose: 100.0 mg/kg/injection, schedule: Q01DX005 (ip), vehicle: saline) was 106 % of control and the T/C (endpoint: median survival time, dose: 200.0 mg/kg/injection, schedule: Q01DX005 (ip), vehicle: saline) was 113 % of control.

`COCCNC(=S)SCCN(C(C)C)C(C)C` was tested, and the T/C (endpoint: mean survival time, dose: 100.0 mg/kg/injection, schedule: Q01DX001 (sc), vehicle: olive oil, sesame oil, peanut oil) was 110 % of control.
